Results taken from patent US20260200983A1, “USE OF GALR2 AGONISTS TO TREAT GASTROINTESTINAL AND/OR ENDOCRINE DISORDERS” (priority 2022, published 2026).
Non-standard residues stand in square brackets, D forms with d. Residues, ends and D or L forms follow the SMILES beside them. Primed or numbered codes have the meaning given here. No end group written: not given here. PEG2′ = not defined here

What was measured:
hGALR2 = biological target: T1, hGALR2 (Homo sapiens, UniProt O43603); assay: SRE luciferase activity in mGqi-hGALR2-SRE Luc expressing cell lines; assay type: cell-based; details: read-out: logEC50 (mean ± SEM) (converted)
T1 construct: expressed in transfected cells
T1 sequence (O43603 1-387): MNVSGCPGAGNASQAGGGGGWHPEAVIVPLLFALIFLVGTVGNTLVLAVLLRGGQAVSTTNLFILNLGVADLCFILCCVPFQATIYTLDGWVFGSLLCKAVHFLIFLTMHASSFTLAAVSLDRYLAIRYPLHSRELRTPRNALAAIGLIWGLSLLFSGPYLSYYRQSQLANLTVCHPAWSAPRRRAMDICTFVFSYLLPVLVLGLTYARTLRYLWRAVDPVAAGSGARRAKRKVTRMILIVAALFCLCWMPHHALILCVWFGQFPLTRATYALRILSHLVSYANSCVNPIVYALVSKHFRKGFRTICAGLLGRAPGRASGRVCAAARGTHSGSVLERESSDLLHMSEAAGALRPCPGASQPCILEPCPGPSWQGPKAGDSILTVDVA
Method: FIG. 11 provides a comparison of the in vitro potency of three different GALR2 agonist peptides with certain amino acid substitutions at the 4th amino acid position. Specifically, the GALR2 agonist peptides were as follows: (1) nWTaNAALYLFGPq-NH2 (D-alanine substitution; triangle), (2) PEG2-NWTeNAALYLFGPq-NH2 (D-glutamic acid; filled circle), and (3) PEG2-NWTrNAALYLFGPq-NH2 (D-arginine; open circle). Potency of the GALR2 agonists was assessed by measuring SRE luciferase activity in mGqi-hGALR2-SRE Luc expressing cell lines treated with the peptides.
In addition to solubility (described above in Example 8), the in vitro potency of the three GALR2 agonist peptides described in Example 7 was next assessed. Specifically, mGqi-hGALR2-SRE Luc expressing cell lines were treated with the different peptides and SRE luciferase activity was measured (as a measure of intracellular activity mediated by the GALR2 agonist peptides).

OIC mice = assay: Colonic transit time (latency to glass bead expulsion) in opioid-induced constipation (OIC) mouse model; assay type: in vivo; details: 10 mg/kg intraperitoneally, single administration at day 7, positive control (FIG. 5)
Method: FIG. 4 provides the overall experimental design in assessing the effects of GALR2 agonists described herein in an opioid-induced constipation (OIC) mouse model. The upward arrows (seven total) represent the daily administration of the GALR2 agonist. The GALR2 agonist that was administered to the relevant groups was pegylated. Control animals received either a vehicle control (negative control) or bisacodyl (positive control). Animals that received a single administration (i.e., at day 7) of naloxone methiodide were also used as a positive control. At 10 minutes post last administration, each of the animals received an administration of morphine (3 mg/kg; subcutaneously). […] Colonic transit time was assessed by measuring the latency to glass bead expulsion by the animals.
FIGS. 9A and 9B show the effect of dosing schedule and administration route on GALR2 agonist-mediated regulation of colonic transit time in OIC mice. […] Colonic transit time was assessed by measuring the latency to glass bead expulsion by the animals. […]
To assess whether the GALR2 agonists described herein could be useful in treating opioid-induced constipation, an OIC mouse model was used. […] Then, a glass bead was rectally inserted, and colonic transit time was assessed by measuring the latency to glass bead expulsion by the animals. […]

[1] = biological target: T2, human galanin receptor type 2 (GALR2) (human, UniProt O43603 1-387); assay: cell-based or functional assay
T2 sequence: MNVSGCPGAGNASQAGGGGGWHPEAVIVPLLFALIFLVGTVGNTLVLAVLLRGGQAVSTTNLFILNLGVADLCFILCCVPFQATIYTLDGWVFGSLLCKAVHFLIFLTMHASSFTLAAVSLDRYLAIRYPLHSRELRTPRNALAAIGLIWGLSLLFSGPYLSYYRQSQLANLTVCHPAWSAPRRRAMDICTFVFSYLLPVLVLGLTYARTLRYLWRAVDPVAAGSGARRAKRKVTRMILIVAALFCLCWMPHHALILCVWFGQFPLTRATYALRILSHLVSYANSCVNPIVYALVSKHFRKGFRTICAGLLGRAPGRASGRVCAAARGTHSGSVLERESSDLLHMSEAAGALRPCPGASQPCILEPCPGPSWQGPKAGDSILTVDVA

Molecule: CC(C)C[C@H](NC(=O)[C@H](C)NC(=O)[C@H](C)NC(=O)[C@H](CC(N)=O)NC(=O)[C@@H](C)NC(=O)[C@@H](NC(=O)[C@H](Cc1c[nH]c2ccccc12)NC(=O)[C@H](N)CC(N)=O)[C@@H](C)O)C(=O)N[C@@H](Cc1ccc(O)cc1)C(=O)N[C@@H](CC(C)C)C(=O)N[C@@H](Cc1ccccc1)C(=O)NCC(=O)N1CCC[C@H]1C(=O)N[C@H](CCC(N)=O)C(N)=O [D-Alanine (SEQ ID NO: 87), nWTaNAALYLFGPq-NH2] (HELM PEPTIDE1{[dN].W.T.[dA].N.A.A.L.Y.L.F.G.P.[dQ].[am]}$$$$V2.0)
- EC50 (hGALR2): 44.7 nM

Molecule: C=CC[N+]1(C)CC[C@]23c4c5ccc(O)c4O[C@H]2C(=O)CC[C@@]3(O)[C@H]1C5 (stereo partly drawn) [naloxone methiodide, reference compound]
- colonic transit time (OIC mice): decrease in colonic transit time

B1: PEG2-NWTrNAALYLFGPq-NH2 ([PEG-dR4-dQ14]-GALR2 Agonist, SEQ ID NO: 89) (peptide)
peptide: [PEG2′]NWT[dR]NAALYLFGP[dQ]-NH2
- EC50 fold change against the D-alanine peptide, SRE luciferase activity [1]: ~3.5 fold
